US10975101B2, “Ultra-potent vinca alkaloids: added molecular complexity further disrupts the tublin dimer-dimer interface” (priority 2016, dated 2021)
Values joined by “and” are separate entries in the source; they are usually repeats but may differ in a detail not shown here. Identical values can stand only once. Like-named read-outs stand apart in the source and are kept apart here.

Tests used:
tubulin = assay: BODIPY-vinblastine/tubulin competitive displacement assay; type: binding; conditions: tubulin 0.91 μM, BODIPY-VBL 1.8 μM, vinblastine analogue 18 μM, 37° C., average of 4 measurements ± SD
Procedure: As a consequence, the commercially available BODIPY-vinblastine fluorescent probe was used to assess tubulin binding and develop its use in a direct competitive binding assay.^15 [(a) Jiang et al., Cancer Res. 1998, 58, 5389; (b) Zhang et al., PloS one 2009, 4, e4881; (c) Rai et al., PloS one 2012, 7, e44311 and (d) Rashid et al., Biochemistry 2015, 54, 2149.]
In carrying out this study, tubulin (0.1 mg/mL, 0.91 μM) was incubated with BODIPY-vinblastine (BODIPY-VBL, 1.8 μM) and a vinblastine analogue (18 μM) at 37° C. in PEM buffer containing 850 μM GTP. The BODIPY-VBL fluorescence intensity (FI) (ex: 480 nm, em: 514 nm) of 100 μL aliquots from each incubation were measured in a fluorescence micro-plate reader at 37° C. Control studies were performed with BODIPY-VBL (control 1) in the absence of a competitive ligand (maximum FI enhancement due to tubulin binding) and (control 2) in the absence of tubulin (no FI enhancement due to tubulin binding). % BODIPY-VBL displacement was calculated by the formula (control 2 FI−experiment FI)/(control 2 FI−control 1 FI)×100. Reported values are the average 4 measurements±the standard deviation.
100 μL of 1 mg/mL tubulin in PEM and 25 μL of 72 μM BODIPY-VBL in DMSO were added to 850 μL of buffer (PEM+1 mM GTP). The solution was incubated at 37° C. for 15 minutes, after which 25 μL of 720 μM competitive ligand in DMSO was added. The solution was incubated for an additional 60 minutes at 37° C., after which 100 μL aliquots of each incubation were transferred into the wells of a 96-well plate (warmed to 37° C. in the plate reader). The BODIPY-vinblastine fluorescence intensity was measured (Ex 480 nm, Em 514 nm, Cutoff 495 nm) at 37° C. Control measurements were performed with BODIPY-VBL (control 1) in the absence of a competitive ligand (maximum FI enhancement due to tubulin binding) and (control 2) in the absence of tubulin (no FI enhancement due to tubulin binding). % BODIPY-VBL displacement was calculated by the formula (Control 2 FI−Experiment FI)/(Control 2 FI−Control 1 FI)×100. PEM: 80 mM PIPES-K pH 6.8, 2 mM MgSO4, 0.5 mM EGTA pH 6.8.

[1] = tested on: HCT116/VM46 (a vinblastine-resistant strain of HCT116) cells; conditions: previously reported (footnote a, Barker et al. 2013) or background art table, cited from earlier work
[2] = tested on: vinblastine sensitive tumor cell lines (L1210 and HCT116); assay: Cell growth inhibition, vinblastine-sensitive lines stated together; type: cell-based; conditions: cell growth inhibition; for increase in potency relative to vinblastine: vinblastine-sensitive lines
Procedure: (§1) Compounds were tested for their cell growth inhibition of L1210 (ATCC no. CCL-219, mouse lymphocytic leukemia) cells, HCT116 (ATCC no. CCL-247, human colorectal carcinoma) cells, and HCT116/VM46 (a vinblastine-resistant strain of HCT116) cells in culture. A population of cells (>1×10^6 cells/mL as determined with a hemocytometer) was diluted with an appropriate amount of Dulbecco's Modified Eagle Medium (DMEM, Gibco) containing 10% fetal bovine serum (FBS, Gibco) to a final concentration of 30000 cells/mL.
(§2) To each well of a 96-well plate (Corning Costar), 100 μL of the cell media solution was added with a multichannel pipet. The cultures were incubated at 37° C. in an atmosphere of 5% CO2 and 95% humidified air for 24 hours. The test compounds were added to the plate as follows: test substances were diluted in DMSO to a concentration of 1 mM and 10-fold serial dilutions were performed on a separate 96-well plate. Fresh culture medium (100 μL) was added to each well of cells to constitute 200 μL of medium per well followed by 2 μL of each test agent. Compounds were tested in duplicate (n=2-18 times) at six concentrations between 0-1000 nM or 0-10000 nM. Following addition, cultures were incubated for an additional 72 hours.
(§3) A phosphatase assay was used to establish the IC50 values as follows: the media in each cell was removed and 100 μL of phosphatase solution (100 mg phosphatase substrate in 30 mL of 0.1 M NaOAc, pH 5.5, 0.1% Triton X-100 buffer) was added to each well. The plates were incubated at 37° C. for either 5 minutes (L1210) or 15 minutes (HCT116 and HCT116/VM46). After the given incubation time, 50 μL of 0.1 N NaOH was added to each well and the absorption at 405 nm was determined using a 96 well plate reader. As the absorption is directly proportional to the number of living cells, the IC50 values were calculated and the reported values represent of the average of 4-36 determinations (SD±10%).

[3] = tested on: HCT116/VM46 (a vinblastine-resistant strain of HCT116) cells; assay: Cell growth inhibition assay, HCT116/VM46; type: cell-based, human; conditions: for IC50: 72 hours incubation, phosphatase assay, Pgp-overexpressing resistant line; for increase in potency relative to vinblastine, HCT116/VM46: resistant line
Procedure: as §1, §2, §3

[4] = tested on: HCT116 (human colorectal carcinoma) cells; assay: cells; type: cell-based
Procedure: as §1, §2, §3

[5] = tested on: L1210 (mouse lymphocytic leukemia) cells; assay: Cell growth inhibition assay, L1210; type: cell-based; conditions: 72 hours incubation, phosphatase assay
Procedure: as §1, §2, §3

[6] = tested on: HCT116 (human colorectal carcinoma) cells; conditions: previously reported (footnote a, Barker et al. 2013) or background art table, cited from earlier work
[7] = tested on: L1210 (mouse lymphocytic leukemia) cells; conditions: previously reported in Barker et al., ACS Med. Chem. Lett. 2013, 4, 985; cited from earlier work
[8] = 72 hours incubation, phosphatase assay, read-out: IC50, HCT116
[9] = listed beside % displacement in second TABLE 5, read-out: IC50 (nM, HCT116)

Structure (SMILES) | % displacement of BODIPY-vinblastine bound to tubulin (tubulin) | IC50 [1] | more potent than the C20′ urea 9 [2] | increase in potency relative to vinblastine [2] | IC50 [3] | increase in potency relative to vinblastine, HCT116/VM46 [3] | IC50 [4, 8] | IC50 [4, 9] | IC50 [5] | IC50 [6] | IC50 [7] | further results
CC[C@]1(O)C[C@@H]2CN(CCc3c([nH]c4ccccc34)[C@@](C(=O)OC)(c3cc4c(cc3OC)N(C)[C@H]3[C@@](O)(C(=O)OC)[C@H](OC(C)=O)[C@]5(CC)C=CCN6CC[C@]43[C@@H]65)C2)C1 [Compound 1, Vinblastine, reference compound] | 31 ± 9% | 600 nM | – | – | – | – | – | – | – | – | – | % displacement of BODIPY-vinblastine bound to tubulin (tubulin; listed as vinblastine): 31%
CC[C@]1(NC(=O)N2Cc3ccc(NC(=O)c4cccnn4)cc3C2)C[C@H]2CN(CCc3c([nH]c4ccccc34)[C@@](C(=O)OC)(c3cc4c(cc3OC)N(C)[C@H]3[C@@](O)(C(=O)OC)[C@H](OC(C)=O)[C@]5(CC)C=CCN6CC[C@]43[C@@H]65)C2)C1 [Compound 61] | 100% and 101 ± 4% | – | 10 fold | 100 fold | 0.87 nM | 700 fold | 0.067 nM | 0.07 nM | 0.059 nM | – | – | –
CC[C@]1(NC(=O)N2Cc3ccc(NC(=O)c4cnccn4)cc3C2)C[C@H]2CN(CCc3c([nH]c4ccccc34)[C@@](C(=O)OC)(c3cc4c(cc3OC)N(C)[C@H]3[C@@](O)(C(=O)OC)[C@H](OC(C)=O)[C@]5(CC)C=CCN6CC[C@]43[C@@H]65)C2)C1 [Compound 60] | 100% and 104 ± 12% | – | 10 fold | 100 fold | 0.83 nM | 700 fold | 0.075 nM | 0.07 nM | 0.059 nM | – | – | –
CC[C@]1(NC(=O)N2CCCC2)C[C@H]2CN(CCc3c([nH]c4ccccc34)[C@@](C(=O)OC)(c3cc4c(cc3OC)N(C)[C@H]3[C@@](O)(C(=O)OC)[C@H](OC(C)=O)[C@]5(CC)C=CCN6CC[C@]43[C@@H]65)C2)C1 [Compound 8] | – | 50 nM | – | – | – | – | – | – | – | 0.72 nM | 0.7 nM | IC50 ([6]; listed as drawing 14): 0.7 nM
CC[C@]1(NC(=O)N2Cc3ccccc3C2)C[C@H]2CN(CCc3c([nH]c4ccccc34)[C@@](C(=O)OC)(c3cc4c(cc3OC)N(C)[C@H]3[C@@](O)(C(=O)OC)[C@H](OC(C)=O)[C@]5(CC)C=CCN6CC[C@]43[C@@H]65)C2)C1 [Compound 9] | – | 7.5 nM | – | – | – | – | – | – | – | 0.6 nM | 0.51 nM | IC50 ([6]; listed as drawing 15): 0.5 nM; IC50 ([1]; listed as drawing 15): 4 nM
CC[C@]1(O)C[C@H]2CN(CCc3c([nH]c4ccc(F)cc34)[C@@](C(=O)OC)(c3cc4c(cc3OC)N(C)[C@H]3[C@@](O)(C(=O)OC)[C@H](OC(C)=O)[C@]5(CC)C=CCN6CC[C@]43[C@@H]65)C2)C1 [Compound 71, 10′-fluorovinblastine, reference compound] | 48 ± 7% | – | – | roughly 10 fold | – | – | – | 0.8 nM | – | – | – | –
CC[C@]1(NC(=O)N2CCCCC2)C[C@H]2CN(CCc3c([nH]c4ccccc34)[C@@](C(=O)OC)(c3cc4c(cc3OC)N(C)[C@H]3[C@@](O)(C(=O)OC)[C@H](OC(C)=O)[C@]5(CC)C=CCN6CC[C@]43[C@@H]65)C2)C1 [Compound 23] | – | 50 nM | – | – | – | – | – | – | – | 3.9 nM | 5.5 nM | –
CC[C@]1(NC(=O)N2Cc3ccc(NC(=O)c4ccncn4)cc3C2)C[C@H]2CN(CCc3c([nH]c4ccccc34)[C@@](C(=O)OC)(c3cc4c(cc3OC)N(C)[C@H]3[C@@](O)(C(=O)OC)[C@H](OC(C)=O)[C@]5(CC)C=CCN6CC[C@]43[C@@H]65)C2)C1 [Compound 58] | 100% and 105 ± 5% | – | 10 fold | 100 fold | 0.88 nM | 700 fold | 0.074 nM | 0.07 nM | 0.062 nM | – | – | –
CC[C@]1(NC(=O)N2Cc3ccc(OC)cc3C2)C[C@H]2CN(CCc3c([nH]c4ccccc34)[C@@](C(=O)OC)(c3cc4c(cc3OC)N(C)[C@H]3[C@@](O)(C(=O)OC)[C@H](OC(C)=O)[C@]5(CC)C=CCN6CC[C@]43[C@@H]65)C2)C1 [Compound 35] | – | 8.6 nM | – | – | – | – | – | – | – | 0.54 nM | 0.48 nM | –
